System: rat MMT model
Test: Rat medial meniscal tear (MMT) model, histopathological scoring of knee joints
Format: in vivo
Conditions: for histology of medial tibia plateau (toluidine blue), cartilage-degenerative changes: 100 ng in 50 μL saline intra-articular, two times per week from 1 week post-surgery, 10 rats per group (Figure 7A); for total joint score: versus saline (Figure 7E)
Procedure: We next tested whether peptide p[63−82] has the potency to delay the progression of trauma-induced cartilage degeneration in the rat MMT model.[34]^,[35] MMT damage was unilaterally initiated. Starting at 1 week post-MMT surgery, rats were two times per week intra-articularly injected with saline, 100 ng peptide p[63−82] in saline, or 100 ng scrambled peptide p[63−82] in saline. At 4 weeks post-MMT surgery, rats were sacrificed for histopathological scoring of the MMT knee joints. […] However, cartilage-degenerative changes were less apparent in the p[63−82] group (Figure 7A, middle panel). […] The femoral compartment also developed cartilage degeneration but less pronounced. This compartment is also more variable in its degenerative changes.[35] […] Cartilage-degeneration scores in zones 2 and 3 were generally low, as is known for the rat MMT model.[35] […] Other scored histopathological items can be found in Figure S5.
Figure 7 BMP7-derived peptide p[63−82] in rat MMT model The potency of BMP7 peptide p[63−82] to delay the progression of trauma-induced cartilage degeneration was tested in the rat MMT model. 1 week post-MMT-surgery, rats were two times per week intra-articularly injected with saline, 100 ng peptide p[63−82] in saline, or 100 ng scrambled peptide p[63−82] in saline (10 rats per group). All injection volumes were 50 μL. At 4 weeks post-MMT surgery, rats were sacrificed for histopathological scoring of the MMT knee joints. (A) Representative micrographs of toluidine blue-stained sections of medial aspects of the MMT knee joints. Conditions are indicated. (B) Medial tibia cartilage-degeneration scores. (C) Medial femur cartilage-degeneration scores. (D) Medial tibia cartilage-degeneration depth ratios. Scores and ratios are shown for zones 1, 2, and 3 individually.[35] The total scores/ratio are cumulative for zone 1, 2, and 3. (E) Total joint scores. Individual data points represent individual rats. Error bars represent mean ± SEM. Statistical differences were calculated between groups (Mann-Whitney U test), and ∗p < 0.05, ∗∗p < 0.01, and ∗∗∗p < 0.001.
The study was conducted via a contract research project at Bolder BioPATH (Boulder, CO, USA); study designs and animal usage were approved by their Institutional Animal Care and Use Committee (IACUC) prior to study initiation (IACUC protocols BBP13-029 and BBP12-004). Animal care, including room, cage, and equipment sanitation, conformed to accepted guidelines cited in the Guide for the Care and Use of Laboratory Animals (the Guide; 2011) and the applicable Bolder BioPATH standard operating procedures (SOPs). Male Lewis rats (n = 48; ∼283 g; Envigo RMS, Indianapolis, IN, USA) underwent a unilateral MMT on study day 0, as established earlier by Bendele et al.[59]^,[60] Rats were intra-articularly injected on days 7, 10, 14, 17, 21, and 24 with saline (0.9% NaCl, 50 μL/injection/animal), peptide p[63−82] (100 ng [in 50 μL saline]/injection/animal), or scrambled peptide p[63−82] (100 ng [in 50 μL saline]/injection/animal). The animals were euthanized for necropsy 28 days post-surgery.[59]^,[60] Right (surgery) knees from all animals were collected, trimmed of muscle (patella removed), and placed in 10% neutral-buffered formalin and then transferred to 70% ethanol for processing for microscopy. Operated joints were cut into two approximately equal halves in the frontal plane and embedded in paraffin. One section was cut from each knee and stained with toluidine blue. The worst-case scenario for the two halves on each slide was determined and used for evaluation. The tissues were analyzed microscopically by a veterinary pathologist as described earlier[35] (Tables S4–S13).

[1] = 100 ng intra-articular two times per week, 4 weeks (Figure 7D)
[2] = 100 ng intra-articular two times per week, 4 weeks (Figures 7B, 7C)
[3] = 100 ng intra-articular two times per week, 4 weeks

Row | Substance | histology of medial tibia plateau (toluidine blue), cartilage-degenerative changes (4 weeks) | medial femur cartilage-degeneration score, zone 1, versus saline (100 ng intra-articular two times per week, 4 weeks (Figure 7C)) | depth ratio of tibia cartilage degeneration, zone 1, versus saline [1] | total depth ratio score of tibia cartilage degeneration, versus saline [1] | cartilage-degeneration scores, p[63-82] versus scrambled p[63-82] [2] | combined (total) tibia and femur cartilage-degeneration scores, versus saline [2] | medial tibia cartilage-degeneration score, zone 1, versus saline (100 ng intra-articular two times per week, 4 weeks, Mann-Whitney U test (Figure 7B)) | total joint score [3] | total joint score (100 ng intra-articular two times per week, 4 weeks, listed as p[62−83]) | cartilage-degeneration scores of tibia or femur in any of the 3 zones, versus saline [2]
1 | H-AAYYSEGESAFPLNSYMNAT-OH [p[63−82]] | less apparent | trend toward a statistically significant lower | significantly lower | significantly lower | did not reveal differences that were statistically significant | significantly lower | significantly lower | significantly lower | significantly improve | 
2 | H-SEASPAMYYLNATANFYESG-OH [scrambled p[63−82], scrambled version of peptide p[63−82], reference compound] | diminished toluidine blue staining and lower chondrocyte cellularity at the lateral side of the medial tibia plateau, as well as cartilage degeneration |  |  |  |  | Neither was there a significant difference |  | in between the values for saline and p[63−82] peptide but was not statistically different compared to either one of the saline or p[63−82] conditions |  | no statistically significant differences
